Results: US7741344B2, “Process for preparing purified S-BEL and R-BEL and compositions thereof” (Washington University in St. Louis, priority 2002, dated 2010)

Columns and labels:
[1] = biological target: T1, recombinant human iPLA2γ (Homo sapiens, UniProt Q9NP80); assay: Assay of iPLA2γ inhibition by BEL (Sf9 cell membranes, radiolabeled phospholipid substrate); format: biochemical
T1 construct: Recombinant full-length iPLA2γ was expressed in Sf9 cells; made in house; host or cells: Sf9 cells (washed membrane fraction, not purified)
T1 sequence (Q9NP80 1-782): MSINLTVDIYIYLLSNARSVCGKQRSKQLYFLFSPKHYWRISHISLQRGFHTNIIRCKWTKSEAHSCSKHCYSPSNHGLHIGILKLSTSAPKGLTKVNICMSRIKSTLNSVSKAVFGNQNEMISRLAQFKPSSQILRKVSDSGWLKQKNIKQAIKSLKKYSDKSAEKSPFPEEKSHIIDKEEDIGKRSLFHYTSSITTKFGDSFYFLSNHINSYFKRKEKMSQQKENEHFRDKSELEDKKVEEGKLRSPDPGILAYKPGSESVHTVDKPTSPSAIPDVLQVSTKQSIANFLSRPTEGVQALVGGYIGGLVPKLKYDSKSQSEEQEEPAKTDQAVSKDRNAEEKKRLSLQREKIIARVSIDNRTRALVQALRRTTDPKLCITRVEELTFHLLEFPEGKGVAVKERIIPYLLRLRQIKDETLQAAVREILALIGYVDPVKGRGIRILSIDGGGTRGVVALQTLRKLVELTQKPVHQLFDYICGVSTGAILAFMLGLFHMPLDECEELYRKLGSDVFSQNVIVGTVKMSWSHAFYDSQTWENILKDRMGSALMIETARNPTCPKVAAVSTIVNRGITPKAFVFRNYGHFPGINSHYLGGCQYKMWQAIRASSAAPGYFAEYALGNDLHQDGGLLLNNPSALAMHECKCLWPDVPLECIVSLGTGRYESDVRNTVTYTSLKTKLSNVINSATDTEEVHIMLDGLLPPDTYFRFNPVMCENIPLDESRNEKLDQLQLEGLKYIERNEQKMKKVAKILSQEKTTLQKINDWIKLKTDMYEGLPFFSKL
Protocol: Recombinant iPLA2 Enzymes—Recombinant iPLA2β was expressed and purified from Sf9 cells as previously described (35). Recombinant full-length iPLA2γ was expressed in Sf9 cells and the membrane fraction was washed and isolated as previously described (24).
Assay of iPLA2β and iPLA2γ Inhibition by BEL—Purified recombinant iPLA2β or Sf9 cell membranes containing recombinant iPLA2γ were incubated with (R) BEL, (S) BEL, racemic BEL, or ethanol vehicle for 3 mm at 22° C. in the presence of 100 mM Tris-HCl (pH 7.0) and 4 mM EGTA (for iPLA2β) or 100 mM Tris-acetate (pH 8.0) and 4 mM EGTA (for iPLA2γ). The concentration of BEL used for each test ranged from 0 to 16 μM. L-α-1-palmitoyl-2-[1^14C]-arachidonyl-phosphatidylcholine (5 μM final concentration) or L-α-1-palmitoyl-2-[1-^14C]-oleoyl-phosphatidylcholine (5 μM final concentration) in ethanol was then added to each sample and incubated at 37° C. for 2 min. Reactions were terminated by extraction of radiolabeled products into butanol, and reactants and products were separated by thin layer chromatography using Whatman LK6D 60 Å Silica Gel plates with petroleum ether/ethyl ether/acetic acid (70:30:1) as the mobile phase. Regions corresponding to the migration of a fatty acid standard visualized by iodine staining were scraped into vials and radioactivity was quantified by scintillation spectrometry.
Panel A—Purified recombinant iPLA2β (1 μg/ml) in 100 mM Tris-HCl, pH 7.3 containing 1 mM EGTA was preincubated at 22° C. for 3 mm in the presence of the indicated concentrations of (R)-, (S)-, or rac-BEL or ethanol vehicle alone (1% final concentration). Radiolabeled substrate (L-α-1-palmitoyl-2-[1-^14C]-arachidonyl-phosphatidylcholine, 5 μM final concentration) was then added to each reaction and incubated at 37° C. for 2 min. Reactions were terminated by extraction of remaining substrate and products into butanol, separation by TLC, and quantification of released radiolabeled fatty acid by scintillation spectrometry as described in Experimental Procedures. Results are representative of four separate tests. Panel B—Washed Sf9 cell membranes containing recombinant human iPLA2γ were preincubated for 3 min with the indicated concentrations of (R)-, (S)-, or racemic BEL or ethanol vehicle alone (1% final concentration) in 100 mM Tris-acetate, pH 8.0 containing 1 mM EGTA at 22° C. Radiolabeled substrate (L-α-1-palmitoyl-2-[1-^14C]-oleoyl-phosphatidylcholine, 5 μM final concentration) was then added to each reaction and incubated at 37° C. for 2 min. Reactions were terminated by extraction of remaining substrate and products into butanol, separation by TLC, and quantification of released radiolabeled fatty acid by scintillation spectrometry as described in “Experimental Procedures”. Results are representative of four separate tests.

[2] = test system: MAPK (ERK2) phosphorylation; assay: AVP-induced MAPK phosphorylation in A-10 cells (Western); format: cell-based, rat; details: 5 μM, 15 min, 1 μM AVP; FIG. 9

selectivity for inhibition of iPLA2γ [1] [fold]	inhibition of iPLA2γ, fold more potent than (S)-BEL ([1]; 3 min preincubation, FIG. 4B)	IC50 ([1]; read-out: IC50 for iPLA2γ (range stated jointly for iPLA2β and iPLA2γ)) [nM]	Compound	selectivity for iPLA2γ than iPLA2β ([1]; in words)	AVP-induced phosphorylation of ERK2 [2]	inhibitory potency on iPLA2γ relative to the enantiomers ([1]; FIG. 4B)
10	approximately 10 fold	–	O=C1O/C(=C/Br)CC[C@@H]1c1cccc2ccccc12 [(R)-BEL, (R)(E)-6-(bromomethylene)-3-(1-naphthalenyl)-2H-tetrahydropyran-2-one]	approximately an order of magnitude more selective	not effected	–
–	–	500 to 3000	O=C1OC(=CBr)CCC1c1cccc2ccccc12 (racemic) [rac-BEL, Racemic (E)-6-(bromomethylene)-3-(1-naphthalenyl)-2H-tetrahydropyran-2-one]	–	not effected	intermediate of that of (R)-BEL and (S)-BEL
